The species entered for one experiment is Ovis aries. As to the kind of experiment: Selectivity ratio of IC50 for ovine COX-1 to IC50 for ovine COX-2.
Experiment [1] is described as follows: Antiplatelet activity in rabbit platelets assessed as inhibition of arachidonic acid-induced platelet aggregation. The experiment is classed as functional, cell-based, Oryctolagus cuniculus.
Experiment [2] concerns the target T1, Prostaglandin G/H synthase 1 (Ovis aries, UniProt P05979).
T1 sequence (P05979 whole entry): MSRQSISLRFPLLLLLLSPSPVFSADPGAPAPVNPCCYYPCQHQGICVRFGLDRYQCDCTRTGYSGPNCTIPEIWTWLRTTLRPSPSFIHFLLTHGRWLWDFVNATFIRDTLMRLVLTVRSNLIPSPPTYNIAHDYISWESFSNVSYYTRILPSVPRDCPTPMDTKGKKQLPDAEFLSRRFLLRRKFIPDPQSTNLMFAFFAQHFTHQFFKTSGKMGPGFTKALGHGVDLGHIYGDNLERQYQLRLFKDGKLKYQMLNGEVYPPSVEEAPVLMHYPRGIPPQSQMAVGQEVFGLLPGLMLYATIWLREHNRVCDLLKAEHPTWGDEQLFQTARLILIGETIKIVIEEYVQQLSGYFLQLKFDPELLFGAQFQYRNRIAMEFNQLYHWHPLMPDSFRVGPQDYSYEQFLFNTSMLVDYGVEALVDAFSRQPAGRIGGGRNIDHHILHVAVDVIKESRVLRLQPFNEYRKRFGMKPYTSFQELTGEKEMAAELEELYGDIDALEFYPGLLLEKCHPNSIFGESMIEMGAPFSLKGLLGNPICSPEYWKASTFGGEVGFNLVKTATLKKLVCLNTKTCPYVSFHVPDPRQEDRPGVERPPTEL
Description: Inhibition of ovine COX-1 assessed as inhibition of transformation of AA to PGH2 by EIA

Experiment [3] in a line: Antiplatelet activity in rabbit platelets assessed as inhibition of platelet activating factor-induced platelet aggregation. The experiment is classed as functional, cell-based, Oryctolagus cuniculus.
Experiment [4] can be described thus: Inhibition of potato LOX-5 assessed as inhibition of hydroperoxide production after 5 mins by EIA. Set-up: species or system Solanum tuberosum.
A short description of experiment [5]: Antiplatelet activity in rabbit platelets assessed as inhibition of adenosin 5'-diphosphate-induced platelet aggregation. The experiment is classed as functional, cell-based. As to conditions: Oryctolagus cuniculus.
Where [6] appears, read: Oryctolagus cuniculus, Platelet.

Turning to `O=C(O)/C=C/c1ccc(O)c(O)c1`, the Ratio IC50 in the experiment listed under Ovis aries amounted to 3.74.
For the molecule `C=CCC1=C[C@]2(OC)[C@@H](O)[C@@](OC)(C1=O)[C@@H](c1cc(OC)c(OC)c(OC)c1)[C@@H]2C` (stereo in doubt; 8) [NECTAMAZIN B], the IC50 (commonly the concentration that inhibits the measured activity by half) in experiment [1] (setting [6]) is 68.7 µM; in experiment [2], 72.2 µM; in experiment [3] (setting [6]) it was 1.37 µM; in experiment [4], 156 µM; in experiment [5], greater than 999 µM.
As to `C=CCC1=C[C@]2(OC)[C@@H](O)[C@@](OC)(C1=O)[C@@H](c1cc(OC)c(OC)c(OC)c1)[C@@H]2C` (stereo in doubt; 9) [NECTAMAZIN B], the IC50 in experiment [1] (platelet) turned out to be 43.4 µM; in experiment [2] it was 152 µM; in experiment [3] (platelet), 1.72 µM; in experiment [4], 42.4 µM.
Consider `C=CCC1=C[C@]2(OC)C(=O)C(C1=O)[C@H](c1cc(OC)c(OC)c(OC)c1)[C@H]2C` [4'-OXO-MACROPHYLLIN B], for which the IC50 in experiment [1] (setting [6]) was found to be 78.9 µM; in experiment [2], 356 µM; in experiment [3] (setting [6]) it was 7.47 µM; in experiment [4] it was 92.5 µM; in experiment [5], 521 µM.
Turning to `C=CCC1=C[C@]2(OC)C(=CC1=O)O[C@@H](c1ccc(OC)c(OC)c1)[C@H]2C` [(+)-DENUDATIN B], the half-inhibitory concentration (IC50) in experiment [1] (setting [6]) worked out at 58.3 µM; in experiment [2] it was 88.6 µM; in experiment [3] (setting [6]) it was 75.6 µM; in experiment [4] it was 0.199 µM; in experiment [5], 148 µM. In addition, the Ratio IC50 in the experiment filed under Ovis aries worked out at 15.6.
For `C/C=C/c1cc(OC)c2c(c1)[C@H](C)[C@@H](c1ccc3c(c1)OCO3)O2` [(-)-LICARIN B], the half-inhibitory concentration (IC50) turned out to be 290 µM in experiment [1] (setting [6]); 366 µM in experiment [2]; 488 µM in experiment [3] (setting [6]); 14.3 µM in experiment [4]; 54.6 µM in experiment [5]. Besides, the Ratio IC50 in the experiment listed under Ovis aries is 426.
Regarding `C/C=C/c1cc(OC)c2c(c1)[C@@H](C)[C@H](c1ccc(OC)c(OC)c1)O2` [ACUMINATIN], the IC50 in experiment [1] (setting [6]) worked out at 222 µM; in experiment [2], 223 µM; in experiment [3] (setting [6]) it was 65.3 µM; in experiment [4], 7.75 µM; in experiment [5], 75.6 µM. Also, the Ratio IC50 in the experiment listed under Ovis aries stood at 146.
For `CC(=O)Oc1ccccc1C(=O)O` [ASPIRIN], the IC50 in experiment [1] (setting [6]) was 5.33 µM; in experiment [3] (setting [6]), 10.3 µM; in experiment [4] it was 0.162 µM; in experiment [5], 545 µM.
In the case of `Cc1ccc(-c2cc(C(F)(F)F)nn2-c2ccc(S(N)(=O)=O)cc2)cc1` [CELECOXIB], the IC50 in experiment [4] was found to be 73.4 µM.
As to `C=CCC1=C[C@]2(OC)C(=O)[C@@](OC)(C1=O)[C@H](c1cc(OC)c3c(c1)OCO3)[C@H]2C` [CINERIN A], the IC50 in experiment [1] (setting [6]) stood at 75.6 µM; in experiment [2], 165 µM; in experiment [4], 45.6 µM; in experiment [5], 88.9 µM.
For `C=CCC1=C[C@@]2(OC)[C@H](C)[C@@H](c3cc(OC)c4c(c3)OCO4)[C@H](C1=O)[C@@H]2O` [CINERIN B], the IC50 in experiment [1] (setting [6]) is 42.8 µM; in experiment [2] it was 32.5 µM; in experiment [3] (setting [6]), 1.51 µM; in experiment [4], 146 µM; in experiment [5], greater than 999 µM.
In the case of `C=CCC1=C[C@]2(OC)[C@H](C)[C@@H](c3cc(OC)c4c(c3)OCO4)[C@](OC)(C1=O)[C@H]2O` [CINERIN C], the IC50 in experiment [1] (setting [6]) was 85.8 µM; in experiment [2], 28.3 µM; in experiment [3] (setting [6]) it was 1.09 µM; in experiment [4], 136 µM; in experiment [5], greater than 999 µM.
In the case of `C=CCC1=C[C@@]2(OC)C(=O)[C@](OC)([C@H](c3cc(OC)c4c(c3)OCO4)[C@H]2C)[C@H]1O` [CINERIN D], the IC50 in experiment [1] (setting [6]) is 25.6 µM; in experiment [2], 188 µM; in experiment [3] (setting [6]) it was 6.63 µM; in experiment [4], 8.84 µM.
Consider `C[C@@H]1C(=O)O[C@H]2[C@H](O)[C@@]34[C@H]5C[C@@H](C(C)(C)C)[C@]36[C@@H](OC(=O)[C@@H]6O)O[C@@]4(C(=O)O5)[C@@]12O` [GINKOLIDE B], for which the IC50 in experiment [1] (setting [6]) was 75.6 µM; in experiment [3] (setting [6]), 0.925 µM; in experiment [5], greater than 999 µM.
As to `C=CCC1=C[C@@]2(OC)[C@H](C)[C@@H](c3ccc(OC)c(OC)c3)[C@H](C1=O)[C@@H]2O` [KADSURENIN C], the IC50 in experiment [1] (setting [6]) was 54.6 µM; in experiment [2], 38.7 µM; in experiment [3] (setting [6]), 2.33 µM; in experiment [4], 117 µM; in experiment [5] it was greater than 999 µM.
Regarding `C=CCC1=C[C@@]2(OC)C(=CC1=O)O[C@H](c1ccc(OC)c(OC)c1)[C@H]2C` [KADSURENONE], the IC50 in experiment [1] (setting [6]) was found to be 5.61 µM; in experiment [2] it was 25.6 µM; in experiment [3] (setting [6]) it was 0.153 µM; in experiment [4], 0.104 µM; in experiment [5], 38.1 µM. In addition, the Ratio IC50 in the experiment listed under Ovis aries was found to be 12.6.
On to `C/C=C/c1cc(OC)c2c(c1)[C@H](C)[C@@H](c1ccc(O)c(OC)c1)O2` [LICARIN A], for which the IC50 in experiment [1] (setting [6]) was 489 µM; in experiment [2], 312 µM; in experiment [3] (setting [6]), greater than 999 µM; in experiment [4] it was 9.73 µM; in experiment [5], 112 µM. The Ratio IC50 in the experiment listed under Ovis aries was 35.5.
In the case of `C/C=C/c1cc(OC)c2c(c1)[C@@H](C)[C@H](c1ccc(O)c(OC)c1)O2` [LICARINE A], the IC50 in experiment [1] (setting [6]) is 556 µM; in experiment [2], 245 µM; in experiment [3] (setting [6]) it was greater than 999 µM; in experiment [4], 3.69 µM; in experiment [5], 165 µM. Further, in the experiment listed under Ovis aries, the Ratio IC50 was 12.5.
With `C/C=C/c1cc(OC)c2c(c1)[C@@H](C)[C@H](c1ccc3c(c1)OCO3)O2` [LICARINE B], the IC50 amounted to 326 µM in experiment [1] (setting [6]); 289 µM in experiment [2]; 565 µM in experiment [3] (setting [6]); 5.55 µM in experiment [4]; 56.7 µM in experiment [5]. The Ratio IC50 in the experiment filed under Ovis aries was determined as 157.
Regarding `C=CCc1cc2c(cc1O)O[C@H](c1ccc3c(c1)OCO3)[C@H]2C` [LILIFLOL A], the IC50 in experiment [1] (setting [6]) was 145 µM; in experiment [2], 179 µM; in experiment [3] (setting [6]) it was 18.4 µM; in experiment [4], 1.81 µM; in experiment [5], 124 µM. The Ratio IC50 in the experiment listed under Ovis aries amounted to 10.2.
On to `C=CCC1=C[C@]2(OC)C(=O)C([C@@H]1O)[C@H](c1cc(OC)c(OC)c(OC)c1)[C@H]2C` [MACROPHYLLIN B], for which the IC50 in experiment [1] (setting [6]) was found to be 23.2 µM; in experiment [2], 216 µM; in experiment [3] (setting [6]), 6.79 µM; in experiment [4] it was 18.9 µM; in experiment [5] it was 121 µM.
Consider `C=CCC1=C[C@@]2(OC)C(=CC1=O)O[C@H](c1cc(OC)c(OC)c(OC)c1)[C@H]2C` [MIRANDIN A], for which the IC50 in experiment [1] (setting [6]) turned out to be 38.7 µM; in experiment [2] it was 77.9 µM; in experiment [3] (setting [6]), 3.28 µM; in experiment [4] it was 0.62 µM.
As to `C=CCC1=C[C@@]2(OC)[C@@H](C)[C@H](c3cc(OC)c(OC)c(OC)c3)[C@](OC)([C@H]1O)[C@H]2O` [NECTAMAZIN C], the IC50 is 21.6 µM in experiment [1] (setting [6]); 74.6 µM in experiment [2]; 3.78 µM in experiment [3] (setting [6]); 12.8 µM in experiment [4]; greater than 999 µM in experiment [5].
Consider `C=CCc1cc(OC)c2oc(-c3ccc4c(c3)OCO4)cc2c1` [NEOLIGNAN 9-NOR-7,8-DEHYDRO-ISOLICARIN B], for which the IC50 is 426 µM in experiment [1] (setting [6]); 349 µM in experiment [2]; 460 µM in experiment [3] (setting [6]); 106 µM in experiment [4]; greater than 999 µM in experiment [5]. Moreover, the Ratio IC50 in the experiment listed under Ovis aries was 329.
For the molecule `COc1cc(C=O)cc2c(C)c(-c3ccc4c(c3)OCO4)oc12` [OCOPHYLLALS A], the IC50 in experiment [1] (setting [6]) was 568 µM; in experiment [2], 123 µM; in experiment [3] (setting [6]) it was greater than 999 µM; in experiment [4], 7.31 µM; in experiment [5] it was 102 µM. In addition, the Ratio IC50 in the experiment listed under Ovis aries was found to be 436.
`COc1cc(-c2oc3c(OC)cc(C=O)cc3c2C)cc(OC)c1OC` [OCOPHYLLALS B]: the IC50 is 425 µM in experiment [1] (setting [6]); 102 µM in experiment [2]; 847 µM in experiment [3] (setting [6]); 8.02 µM in experiment [4]; 98.3 µM in experiment [5]. In addition, the Ratio IC50 in the experiment listed under Ovis aries stood at 412.
Consider `C=CCC1=C[C@@]2(OC)[C@H](C)[C@@H](c3ccc4c(c3)OCO4)[C@H](C1=O)[C@H]2O` [OCOPHYLOL A], for which the IC50 in experiment [1] (setting [6]) came to 45.6 µM; in experiment [2], 88.6 µM; in experiment [3] (setting [6]) it was 3.08 µM; in experiment [4], 256 µM; in experiment [5], 636 µM.
The matching figures for `C=CCC1=C[C@@]2(OC)[C@H](C)[C@@H](c3ccc(OC)c(OC)c3)[C@H](C1=O)[C@H]2O` [OCOPHYLOL B]: 38.8 µM, 94.9 µM, 3.03 µM, 189 µM and 725 µM.
Consider `C=CCC1=C[C@@]2(OC)[C@H](C)[C@@H](c3cc(OC)c(OC)c(OC)c3)[C@H](C1=O)[C@H]2O` [OCOPHYLOL C], for which the IC50 in experiment [1] (setting [6]) was 48.6 µM; in experiment [2] it was 72.1 µM; in experiment [3] (setting [6]) it was 2.34 µM; in experiment [4], 176 µM; in experiment [5], greater than 999 µM.

The values are drawn from ChEMBL document CHEMBL1156142, “COX, LOX and platelet aggregation inhibitory properties of Lauraceae neolignans” (Bioorg Med Chem Lett, 2009).
